Measurements as given in paper PMC10996005, “Identification and Development of Cyclic Peptide Inhibitors of Hypoxia Inducible Factors 1 and 2 That Disrupt Hypoxia-Response Signaling in Cancer Cells” (Journal of the American Chemical Society, 2024).
“Also recorded” adds a separate entry of the source. Where a SMILES comes first, the peptide text is derived from it. [ ]: non-standard residue; d: D form. Phe(4-I) = N[C@@H](Cc1ccc(I)cc1)C(=O)O

Experiments:
CAIX in HeLa cells = assay: qPCR of CAIX in HeLa cells; type: cell-based; conditions: hypoxic HeLa cells, vs DMSO-treated hypoxic cells
Procedure: The effect of our lead inhibitor on hypoxia-response signaling was measured by qPCR in cancer cell lines. Cells were treated with either 2 μM of an analogue of the HIF-2-specific inhibitor belzutifan, PT2399 (control), or 50 μM of cyclo-CRLII(4-iodo)F, incubated in hypoxia for 24 h, and the levels of the hypoxia-response genes CAIX([41],[42]) and VEGF([43]) were measured by qPCR. We observed a 51% drop in CAIX transcription and a 43% drop in VEGF transcription in hypoxic MCF-7 (breast cancer) cells treated with 50 μM of cyclo-CRLII(4-iodo)F versus hypoxic MCF-7 cells treated with DMSO only (Figure 6e). […] We also observed a 49% drop in CAIX expression in hypoxic HeLa (cervical cancer) cells treated with cyclo-CRLII(4-iodo)F (Figure S9b). […] We observed a 35% drop in HIF-2-driven VEGF transcription in 786-O cells treated with 50 μM of cyclo-CRLII(4-iodo)F compared to a 50% decrease in 786-O cells treated with PT2399.
Figure S9. (a) The effect of cyclo-CRLII(4-iodo)F on the viability of T-ReX-293 cells. […]
The Flp-In-HRE-eYFP cells were plated on 24-well plates at 80% confluency and incubated overnight under normoxic conditions. […] An equal amount of the supernatant from each treatment was plated on a 96-well plate, and the emission of eYFP was measured using a microplate reader. […]

HIF-1α/HIF-1β PPI = molecular target: T1, HIF-1α/HIF-1β PPI (Homo sapiens, UniProt Q16665); assay: Proximity-ligation assay (PLA) in DFX-treated HeLa cells; type: cell-based; conditions: 50 μM compound vs DMSO
T1 construct: endogenous in cells; host or cells: HeLa
T1 sequence (Q16665 whole entry): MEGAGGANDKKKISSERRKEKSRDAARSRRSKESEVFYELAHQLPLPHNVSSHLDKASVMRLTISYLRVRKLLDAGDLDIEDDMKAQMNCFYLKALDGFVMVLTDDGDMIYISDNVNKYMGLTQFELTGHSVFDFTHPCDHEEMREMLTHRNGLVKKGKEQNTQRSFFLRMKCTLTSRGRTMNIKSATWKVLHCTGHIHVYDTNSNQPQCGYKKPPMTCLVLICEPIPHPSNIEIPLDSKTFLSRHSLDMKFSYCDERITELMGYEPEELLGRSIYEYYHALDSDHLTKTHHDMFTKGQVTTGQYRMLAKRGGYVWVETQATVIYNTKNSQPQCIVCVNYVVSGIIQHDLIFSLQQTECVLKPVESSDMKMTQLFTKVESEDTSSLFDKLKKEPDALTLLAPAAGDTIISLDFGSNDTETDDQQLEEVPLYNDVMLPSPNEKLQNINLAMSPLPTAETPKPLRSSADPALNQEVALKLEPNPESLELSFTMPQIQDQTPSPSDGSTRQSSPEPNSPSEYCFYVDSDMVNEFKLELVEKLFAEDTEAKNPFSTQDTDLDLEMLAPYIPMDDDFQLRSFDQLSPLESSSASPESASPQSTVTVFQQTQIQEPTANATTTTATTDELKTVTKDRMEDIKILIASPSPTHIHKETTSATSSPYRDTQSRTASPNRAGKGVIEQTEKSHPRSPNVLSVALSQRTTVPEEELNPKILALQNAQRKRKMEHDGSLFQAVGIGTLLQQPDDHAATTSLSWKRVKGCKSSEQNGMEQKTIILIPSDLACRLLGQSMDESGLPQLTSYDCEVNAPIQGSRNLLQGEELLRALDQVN
Procedure: We used a previously reported[26] proximity-ligation assay (PLA) to assess whether cyclo-CRLII(4-iodo)F disrupts the HIF-1α/HIF-1β PPI in cells. HeLa cells were treated with the hypoxia mimic desferrioxamine (DFX) and treated with either DMSO (control) or 50 μM of cyclo-CRLII(4-iodo)F; in the control-treated samples, we observed the red puncta associated with the PLA signal from the targeted PPI (Figure 6c, upper panels).
All reagents were purchased from Fisher Scientific or Sigma Aldrich UK unless specified otherwise.
Restriction enzymes and microbiology reagents were purchased from New England Biolabs Inc., Fisher Scientific (UK) or Promega (UK) and were used as directed by the manufacturer. Primers and oligonucleotides were synthesised by Integrated DNA Technologies (UK). DNA sequencing was carried out by Eurofins MWG Operon (Germany).
Construction of the RTHS and SICLOPPS library, screening, purification of recombinant HIF proteins, and the PLA was conducted as previously described in Miranda et al., J. Am. Chem. Soc., 2013, 135(28); […]
The labelled protein was separated from unreacted dye by elution through a PD minitrap G-25 column (GE healthcare). […] Extent of labelling was measured by the absorbance obtained using the UV-vis mode on a NanoDrop ND-1000 Spectrophotometer (NanoDrop Technologies, USA). […]

SMILES: CC[C@H](C)[C@@H]1NC(=O)[C@H](CC(C)C)NC(=O)[C@H](CCCNC(=N)N)NC(=O)[C@H](CS)NC(=O)[C@H](Cc2ccc(I)cc2)NC(=O)[C@H]([C@@H](C)CC)NC1=O [cyclo-CRLII(4-iodo)F] (cyclo(CRLII[Phe(4-I)]))
- drop in CAIX expression (CAIX in HeLa cells): 49%
- PLA signal (red puncta) of the HIF-1α/HIF-1β PPI (HIF-1α/HIF-1β PPI): red puncta are absent; also recorded: the red puncta were not observed
